Literature values as cited in US8986418B1, “Method and system for agricultural fertigation” (priority 2008, dated 2015).
Read-outs that look alike come from different tables or passages of the source.

SMILES | Solubility with anion CO3^−2 | Solubility with anion CO3^−2 (listed as Fe^+3) | Solubility with anion Cl | Solubility with anion HCO3^− | Solubility with anion HCO3^− (listed as Fe^+3) | Solubility with anion NO3^− | Solubility with anion OH^− | Solubility with anion OH^− (listed as Fe^+3) | Solubility with anion PO4^−3 | Solubility with anion SO4^−2 | Solubility with anion S^−2
[Fe+2] [Fe^+2] | VSS (VSS means very slightly soluble (20-2,000 ppm)) | I (I means insoluble (<20 ppm)) | S (S means soluble (over 5,000 ppm)) | SS (SS means slightly soluble (2,000 to 5,000 ppm)) | I (I means insoluble (<20 ppm)) | S (S means soluble (over 5,000 ppm)) | VSS (VSS means very slightly soluble (20-2,000 ppm)) | I (I means insoluble (<20 ppm)) | I (I means insoluble (<20 ppm)) | S (S means soluble (over 5,000 ppm)) | I (I means insoluble (<20 ppm))
[H+] [H^+] | CO2 | – | S (S means soluble (over 5,000 ppm)) | S (S means soluble (over 5,000 ppm)) | – | S (S means soluble (over 5,000 ppm)) | – | – | S (S means soluble (over 5,000 ppm)) | S (S means soluble (over 5,000 ppm)) | –
[K+] [K^+] | S (S means soluble (over 5,000 ppm)) | – | S (S means soluble (over 5,000 ppm)) | S (S means soluble (over 5,000 ppm)) | – | S (S means soluble (over 5,000 ppm)) | S (S means soluble (over 5,000 ppm)) | – | S (S means soluble (over 5,000 ppm)) | S (S means soluble (over 5,000 ppm)) | S (S means soluble (over 5,000 ppm))
[Mg+2] [Mg^+2] | VSS (VSS means very slightly soluble (20-2,000 ppm)) | – | S (S means soluble (over 5,000 ppm)) | S (S means soluble (over 5,000 ppm)) | – | S (S means soluble (over 5,000 ppm)) | I (I means insoluble (<20 ppm)) | – | I (I means insoluble (<20 ppm)) | S (S means soluble (over 5,000 ppm)) | –
[Mn+2] [Mn^+2] | I (I means insoluble (<20 ppm)) | – | S (S means soluble (over 5,000 ppm)) | – | – | S (S means soluble (over 5,000 ppm)) | I (I means insoluble (<20 ppm)) | – | I (I means insoluble (<20 ppm)) | S (S means soluble (over 5,000 ppm)) | I (I means insoluble (<20 ppm))
